Laboratory results taken from patent US7084136B2, “Drug composition antagonistic to both PGD2/TXA2 receptors” (Shionogi & Co., Ltd., priority 2000, dated 2006).
Read-outs that look alike come from different tables or passages of the source. Marks after values point to notes of the source that are not given here.

How the values were obtained:
[1] = target: T1, PGD2 receptor (Homo sapiens, UniProt Q13258); test: Antagonistic activity against PGD2 receptor using human platelet (inhibition of PGD2-induced cAMP increase); type: cell-based
T1 construct: A suspension adjusted to contain the platelets at a final concentration of 5×10^8/ml was warmed at 37° C; endogenous in cells; host or cells: washed human platelets from a healthy volunteer
T1 sequence (Q13258 1-359): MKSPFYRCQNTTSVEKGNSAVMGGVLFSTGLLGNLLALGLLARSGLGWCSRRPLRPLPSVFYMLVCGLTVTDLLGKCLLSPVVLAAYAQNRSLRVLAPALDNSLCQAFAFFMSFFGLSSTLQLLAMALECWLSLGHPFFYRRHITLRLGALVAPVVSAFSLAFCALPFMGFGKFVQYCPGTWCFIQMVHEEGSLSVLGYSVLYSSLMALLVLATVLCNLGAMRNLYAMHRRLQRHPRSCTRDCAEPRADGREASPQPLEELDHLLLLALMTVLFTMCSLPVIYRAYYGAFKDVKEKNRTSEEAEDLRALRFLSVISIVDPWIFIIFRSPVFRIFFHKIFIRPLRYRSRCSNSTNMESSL
Method: Experiment 3 Evaluation of Antagonistic Activity Against PGD2 Receptor
Receptor Using Human Platelet
Peripheral blood was collected from a healthy volunteer using a syringe in which 1/9 volume of a citric acid/dextrose solution was previously added. The sample was subjected to centrifugation at 1200 rpm for 10 min to obtain the supernatant (PRP: platelet rich plasma). The resultant PRP was washed 3 times with a washing buffer and the number of platelets was counted with a micro cell counter. A suspension adjusted to contain the platelets at a final concentration of 5×10^8/ml was warmed at 37° C., then subjected to the pre-treatment with 3-isobutyl-1-methylxanthine (0.5 mM) for 5 min. To the suspension was added a test compound diluted at various concentration, and 10 minutes later, 0.1 μM PGD2 was added to induce the reaction 2 minutes later, hydrochloric acid was added to terminate the reaction. The platelet was destroyed with an ultrasonic homogenizer. After centrifugation, the cAMP in the supernatant was determined by radioimmunoassay. PGD2 receptor antagonism of a drug was evaluated as follows: the inhibition rate regarding cAMP increased by the addition of PGD2 was determined at each concentration, and the concentration of the drug required for 50% inhibition (IC50) was calculated.

[2] = system: PGD2 receptor; test: Acceleration of vascular permeability of conjunctiva induced by PGD2 (Evans blue dye leakage); type: in vivo, guinea pig; conditions: for ED50 PGD2: oral, 1 h before challenge, 0.1% PGD2 instillation, conjunctival dye leakage, guinea pigs; for inhibition of the increase in vascular permeability in conjunctiva by the stimulation with PGD2: summary of Table 80, oral 1 h before challenge, guinea pig
Method: Acceleration of Vascular Permeability of Conjunctiva Induced by PGD2 and U-46619
Using male Hartley guinea pigs, PGD2- and TxA2 receptor-mediated increase in conjunctival vascular permeability was produced by instillation of each 10 μl solution of either 0.1% PGD2 or U-46619 (TXA2 receptor agonist) to the both eyes without anesthetization. Immediately after that, Evans blue dye (20 mg/kg) was intravenously injected. 30 min after the challenge, guinea pigs were sacrificed by bleeding under anesthesia with Pentobarbital (30 mg/kg, i.p.) and the tissue of conjunctiva was removed. The dye leaked into the tissue was extracted in formamide 3 ml at 60° C. for more than 24 h, and then centrifuged. The absorbance of the supernatant was measured at 620 nm. The amount of dye was calculated from the calibration curve of Evans blue dye. Each compound was suspended in 0.5% methyl-cellulose and administrated orally at 1 h before the challenge. The antagonistic activity was evaluated by the inhibition ratio against the dye leaked into conjunctiva caused by PGD2 or U-46619 at each dose and then a 50% effective dose of inhibition (ED50 value) of each compound was calculated.

[3] = target: T2, TXA2 receptor (Homo sapiens, UniProt P21731); test: Binding activity to TXA2 receptor ([3H](+)-S-145 sodium salt, human platelet membrane fraction)
T2 construct: The human platelet membrane fraction was prepared in accordance with Experiment 1 (1); from tissue; host or cells: human platelet membrane fraction from blood of healthy volunteers
T2 sequence (P21731 1-343): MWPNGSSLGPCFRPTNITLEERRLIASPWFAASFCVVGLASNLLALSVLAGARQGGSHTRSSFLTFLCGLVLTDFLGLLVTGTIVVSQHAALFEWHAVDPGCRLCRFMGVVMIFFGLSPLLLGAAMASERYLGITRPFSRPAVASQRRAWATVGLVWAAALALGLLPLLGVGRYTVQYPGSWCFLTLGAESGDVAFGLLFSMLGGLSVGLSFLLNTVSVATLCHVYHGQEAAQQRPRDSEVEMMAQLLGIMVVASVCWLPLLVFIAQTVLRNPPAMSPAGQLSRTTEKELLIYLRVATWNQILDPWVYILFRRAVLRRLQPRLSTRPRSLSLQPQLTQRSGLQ
Method: Experiment 2 Binding Activity to TXA2 Receptor
(1) Preparation of Human Platelet Membrane Fraction
The human platelet membrane fraction was prepared in accordance with Experiment 1 (1).
(2) Binding to TXA2 Receptor
To a binding-reaction solution (50 mM Tris/HCl, pH 7.4, 10 mM MgCl2) (0.2 ml) were added the human platelet membrane fraction (0.05 mg) and 2 nM Sodium [^3H](+)-(5Z)-7-[3-endo-[(phenylsulfonyl)amino]bicyclo[2.2.1]hept-2-exo-yl]heptenoate (Japanese Patent Publication (Kokoku) No.79060/1993, hereinafter referred to as (+)-S-145 sodium salt) (26.4 Ci/mmol), and the mixture was reacted at room temperature for 90 min. After the reaction, the resultant mixture was filtered through a glass fiber filter paper and washed several times with cooled physiological saline, then the radioactivity retained on the filter paper was measured. The specific-binding ratio was calculated by subtracting the non-specific binding ratio (the radio activity similarly determined in the presence of 10 μM (+)-S-145 sodium salt) from the total binding. The inhibitory activity of each compound was expressed as the concentration required for 50% inhibition (IC50), which was determined by depicting a substitution curve by plotting the binding ratio (%) in the presence of each compound, where the binding ratio in the absence of a test compound is 100%.

[4] = system: Male Hartley guinea pigs; test: Antigen-induced bronchial hyperresponsiveness (acetylcholine PD200, OVA-sensitized guinea pigs); type: in vivo, guinea pig; conditions: for inhibition of the induction of bronchial hyperresponsiveness: summary of Table 74 to Table 76, oral, guinea pig
Method: Comparative Experiment 2 Antigen-Induced Bronchial Hyperresponsiveness
Male Hartley guinea pigs were actively sensitized to ovalbumin (OVA) by inhalation of aerosolized solution of 1% ovalbumin twice at a week interval. One week after the second sensitization, the animals were treated with antihistamine, diphenhydramine (10 mg/kg, i.p.), and then challenged with 1% OVA aerosol for 5 min. Twenty four hours later, acetylcholine at doses at 3.13, 6.25, 12.5, 25, 50 and 100 micro g/kg was sequentially injected into the animals which were anesthetized with pentobarbital (30 mg/kg, i.p.). The bronchoconstriction induced by each dose of acetylcholine was monitored by the modified method of Konzett-Rössler technique, and made a dose-response curve of acetylcholine. Using the dose-response curve, the dose required for 200% increase in bronchoconstriction from baseline (PD200) was calculated in each animal and used as an indication of bronchial responsiveness. Compounds were orally administered 1 hour before antigen challenge. **: P<0.01 vs Vehicle(Dunnett's test), ^##: P<0.01 vs Vehicle(Student's t test).

[5] = comparative experiment in accordance with Experiment 3, read-out: Experiment 3 Antagonistic activity against PGD2 receptor IC50
[6] = comparative experiment in accordance with Experiment 2, read-out: Experiment 2 Antagonistic activity against TXA2 receptor IC50

IC50 [1, 5] | IC50 [3, 6] | IC50 ([1]; human platelet, 0.1 μM PGD2, read-out: Inhibitory activity for the increase of cAMP caused by PGD2 in human platelet IC50) | IC50 ([3]; human platelet membrane fraction, 2 nM [3H](+)-S-145 sodium salt, read-out: Binding activity to TXA2 receptor in human platelet membrane fraction IC50) | Compound | ED50 PGD2 [2] | inhibition of the increase in vascular permeability in conjunctiva by the stimulation with PGD2 [2] | Log PD200 ([4]; 1 mg/kg orally 1 hour before antigen challenge, OVA-sensitized guinea pigs, acetylcholine) | Log PD200 ([4]; 10 mg/kg orally 1 hour before antigen challenge, OVA-sensitized guinea pigs, acetylcholine) | inhibition of the induction of bronchial hyperresponsiveness [4] | Log PD200 ([4]; 10 mg/kg orally 1 hour before antigen challenge, acetylcholine dose for 200% increase in bronchoconstriction, 24 h after OVA challenge)
> 10000 nM | 3.8 nM | – | – | O=C(O)CCC/C=C\C[C@H]1[C@@H]2CC[C@@H](C2)[C@@H]1NS(=O)(=O)c1ccccc1 [A, reference compound] | >30 mg/kg | suppressed only U-46619-induced response | 1.29 ± 0.04 | 1.61 ± 0.09** | suppressed | –
63 nM | 2.3 nM | 63 nM | 2.3 nM | Cc1cccn1S(=O)(=O)c1ccc(C(=O)N[C@@H]2[C@@H](CCCC/C=C/C(=O)O)C[C@H]3C[C@@H]2C3(C)C)s1 [II-7I-55a] | 0.33 mg/kg | showed both responses | – | – | suppressed | 1.442 ± 0.055**
